Measured values: ChEMBL document CHEMBL1129770 (Bioorg Med Chem Lett, 1996)
Starred links: 1 amine or outer side, 2 acyl side, 3 side chain; linkers in the order of their positions; H or OH if unused. Residues, ends and D or L forms follow the SMILES beside them. Suc = O=C(CCC(=O)[*:2])[*:1]

How the values were obtained:
[1] = molecular target: T1, Endothelin receptor type B (Sus scrofa, UniProt P35463); assay: Ability to inhibit [125I]ET-3 binding to the Endothelin B receptor from porcine lung membranes was evaluated; format: tissue-based
T1 sequence (P35463 whole entry): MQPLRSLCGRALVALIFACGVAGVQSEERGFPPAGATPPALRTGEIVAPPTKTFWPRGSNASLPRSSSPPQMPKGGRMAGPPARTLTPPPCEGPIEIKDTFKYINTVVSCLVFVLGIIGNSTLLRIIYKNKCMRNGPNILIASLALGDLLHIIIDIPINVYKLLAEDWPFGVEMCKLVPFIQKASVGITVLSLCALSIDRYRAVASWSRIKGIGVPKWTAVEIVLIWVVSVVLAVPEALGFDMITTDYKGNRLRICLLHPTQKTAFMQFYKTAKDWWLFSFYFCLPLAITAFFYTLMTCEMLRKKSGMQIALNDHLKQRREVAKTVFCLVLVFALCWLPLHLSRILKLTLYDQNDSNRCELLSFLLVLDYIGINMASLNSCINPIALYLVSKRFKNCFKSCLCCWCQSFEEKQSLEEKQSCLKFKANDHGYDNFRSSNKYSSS

Bos taurus = organism: Bos taurus; assay: Ability to inhibit 3H substance P binding to bovine retina was evaluated; format: functional
Endothelin-1 receptor = molecular target: T2, Endothelin-1 receptor (Sus scrofa, UniProt Q29010); assay: Ability to inhibit [125I]ET1 binding to the Endothelin A receptor from porcine lung membranes was evaluated; format: tissue-based
T2 sequence (Q29010 whole entry): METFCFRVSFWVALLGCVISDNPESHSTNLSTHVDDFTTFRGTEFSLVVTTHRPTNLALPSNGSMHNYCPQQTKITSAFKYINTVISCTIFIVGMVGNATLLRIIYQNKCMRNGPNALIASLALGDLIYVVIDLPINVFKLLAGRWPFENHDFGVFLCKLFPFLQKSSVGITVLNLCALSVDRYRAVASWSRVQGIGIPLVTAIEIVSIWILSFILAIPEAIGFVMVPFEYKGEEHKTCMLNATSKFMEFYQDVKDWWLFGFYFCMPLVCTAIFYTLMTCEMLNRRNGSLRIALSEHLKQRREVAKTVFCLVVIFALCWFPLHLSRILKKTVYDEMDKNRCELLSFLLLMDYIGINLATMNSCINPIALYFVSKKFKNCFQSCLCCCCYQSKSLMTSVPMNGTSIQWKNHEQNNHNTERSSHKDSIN

SMILES | Ki [1] | IC50 (Bos taurus) | Ki (Endothelin-1 receptor)
Cc1cc(C)cc(C(=O)N(C)[C@H](Cc2ccccc2)C(=O)NCCc2c[nH]c3ccccc23)c1 | 5 nM | 800 nM | 
O=C(N[C@@H](Cc1c[nH]c2ccccc12)C(=O)O)C1CC1c1ccccc1 (stereo not given in full) | 16 nM |  | 
Cc1cc(C)cc(C(=O)N(C)[C@H](Cc2ccccc2)C(=O)N[C@@H](Cc2c[nH]c3ccccc23)C(=O)O)c1 | 36 nM | 2000 nM | 11000 nM
Cc1cc(C)cc(C(=O)N(C)[C@H](Cc2ccc(-c3ccccc3)cc2)C(=O)N[C@@H](Cc2c[nH]c3ccccc23)C(=O)O)c1 |  | > 10000 nM | 
CC[C@H](C)[C@H](NC(=O)[C@H](CC(=O)O)NC(=O)[C@H](CC(C)C)NC(=O)[C@H](Cc1c[nH]cn1)NC(=O)[C@H](C)NC(=O)[C@H](Cc1ccccc1)NC(=O)[C@H](Cc1ccc(O)cc1)NC(=O)CNC(=O)[C@H](C)NC(=O)[C@H](CCC(=O)O)NC(=O)CCC(=O)O)C(=O)N[C@H](C(=O)N[C@@H](Cc1c[nH]c2ccccc12)C(=O)O)[C@@H](C)CC (Suc-EAGYFAHLDIIW-OH) | 0.91 nM |  | 1300 nM
CC[C@H](C)[C@H](NC(=O)[C@H](CC(=O)O)NC(=O)[C@H](CC(C)C)NC(=O)[C@H](Cc1cnc[nH]1)NC(=O)[C@H](C)NC(=O)[C@H](Cc1ccccc1)NC(=O)CNC(=O)[C@@H](NC(=O)[C@H](C)NC(=O)[C@H](CCC(=O)O)NC(=O)CCC(=O)O)C(C)C)C(=O)N[C@H](C(=O)N[C@@H](Cc1c[nH]c2ccccc12)C(=O)O)[C@@H](C)CC (Suc-EAVGFAHLDIIW-OH) | 11 nM |  | 5000 nM
CC[C@H](C)[C@H](NC(=O)[C@H](CC(=O)O)NC(=O)[C@H](CC(C)C)NC(=O)CNC(=O)[C@H](C)NC(=O)[C@H](Cc1ccccc1)NC(=O)[C@H](Cc1ccc(O)cc1)NC(=O)[C@@H](NC(=O)[C@H](C)NC(=O)[C@H](CCC(=O)O)NC(=O)CCC(=O)O)C(C)C)C(=O)N[C@H](C(=O)N[C@@H](Cc1c[nH]c2ccccc12)C(=O)O)[C@@H](C)CC (Suc-EAVYFAGLDIIW-OH) | 1 nM |  | 250 nM
CC[C@H](C)[C@H](NC(=O)[C@H](CC(=O)O)NC(=O)CNC(=O)[C@H](Cc1c[nH]cn1)NC(=O)[C@H](C)NC(=O)[C@H](Cc1ccccc1)NC(=O)[C@H](Cc1ccc(O)cc1)NC(=O)[C@@H](NC(=O)[C@H](C)NC(=O)[C@H](CCC(=O)O)NC(=O)CCC(=O)O)C(C)C)C(=O)N[C@H](C(=O)N[C@@H](Cc1c[nH]c2ccccc12)C(=O)O)[C@@H](C)CC (Suc-EAVYFAHGDIIW-OH) | 5.9 nM |  | > 10000 nM
CC[C@H](C)[C@H](NC(=O)CNC(=O)[C@H](CC(=O)O)NC(=O)[C@H](CC(C)C)NC(=O)[C@H](Cc1cnc[nH]1)NC(=O)[C@H](C)NC(=O)[C@H](Cc1ccccc1)NC(=O)[C@H](Cc1ccc(O)cc1)NC(=O)[C@@H](NC(=O)[C@H](C)NC(=O)[C@H](CCC(=O)O)NC(=O)CCC(=O)O)C(C)C)C(=O)N[C@@H](Cc1c[nH]c2ccccc12)C(=O)O (Suc-EAVYFAHLDGIW-OH) | 180 nM |  | > 10000 nM
CC[C@H](C)[C@H](NC(=O)[C@H](CC(=O)O)NC(=O)[C@H](CC(C)C)NC(=O)[C@H](Cc1cnc[nH]1)NC(=O)[C@H](C)NC(=O)[C@H](Cc1ccccc1)NC(=O)[C@H](Cc1ccc(O)cc1)NC(=O)[C@@H](NC(=O)[C@H](C)NC(=O)[C@H](CCC(=O)O)NC(=O)CCC(=O)O)C(C)C)C(=O)NCC(=O)N[C@@H](Cc1c[nH]c2ccccc12)C(=O)O (Suc-EAVYFAHLDIGW-OH) | 5200 nM |  | > 10000 nM
CC[C@H](C)[C@H](NC(=O)[C@H](CC(=O)O)NC(=O)[C@H](CC(C)C)NC(=O)[C@H](Cc1cnc[nH]1)NC(=O)[C@H](C)NC(=O)[C@H](Cc1ccccc1)NC(=O)[C@H](Cc1ccc(O)cc1)NC(=O)[C@@H](NC(=O)[C@H](C)NC(=O)[C@H](CCC(=O)O)NC(=O)CCC(=O)O)C(C)C)C(=O)N[C@H](C(=O)NCC(=O)O)[C@@H](C)CC (Suc-EAVYFAHLDIIG-OH) | > 10000 nM |  | > 10000 nM
CC[C@H](C)[C@H](NC(=O)[C@H](CC(=O)O)NC(=O)[C@H](CC(C)C)NC(=O)[C@H](Cc1c[nH]cn1)NC(=O)[C@H](C)NC(=O)[C@H](Cc1ccccc1)NC(=O)[C@H](Cc1ccc(O)cc1)NC(=O)[C@@H](NC(=O)[C@H](C)NC(=O)[C@H](CCC(=O)O)NC(=O)CCC(=O)O)C(C)C)C(=O)N[C@H](C(=O)N[C@@H](Cc1c[nH]c2ccccc12)C(=O)O)[C@@H](C)CC (Suc-EAVYFAHLDIIW-OH) | 0.077 nM |  | 620 nM
CC[C@H](C)[C@H](NC(=O)CNC(=O)[C@H](CC(C)C)NC(=O)[C@H](Cc1cnc[nH]1)NC(=O)[C@H](C)NC(=O)[C@H](Cc1ccccc1)NC(=O)[C@H](Cc1ccc(O)cc1)NC(=O)[C@@H](NC(=O)[C@H](C)NC(=O)[C@H](CCC(=O)O)NC(=O)CCC(=O)O)C(C)C)C(=O)N[C@H](C(=O)N[C@@H](Cc1c[nH]c2ccccc12)C(=O)O)[C@@H](C)CC (Suc-EAVYFAHLGIIW-OH) | 0.25 nM |  | 96 nM
CC[C@H](C)[C@H](NC(=O)[C@H](CC(=O)O)NC(=O)[C@H](CC(C)C)NC(=O)[C@H](Cc1cnc[nH]1)NC(=O)CNC(=O)[C@H](Cc1ccccc1)NC(=O)[C@H](Cc1ccc(O)cc1)NC(=O)[C@@H](NC(=O)[C@H](C)NC(=O)[C@H](CCC(=O)O)NC(=O)CCC(=O)O)C(C)C)C(=O)N[C@H](C(=O)N[C@@H](Cc1c[nH]c2ccccc12)C(=O)O)[C@@H](C)CC (Suc-EAVYFGHLDIIW-OH) | 5.3 nM |  | 2000 nM
CC[C@H](C)[C@H](NC(=O)[C@H](CC(=O)O)NC(=O)[C@H](CC(C)C)NC(=O)[C@H](Cc1c[nH]cn1)NC(=O)[C@H](C)NC(=O)CNC(=O)[C@H](Cc1ccc(O)cc1)NC(=O)[C@@H](NC(=O)[C@H](C)NC(=O)[C@H](CCC(=O)O)NC(=O)CCC(=O)O)C(C)C)C(=O)N[C@H](C(=O)N[C@@H](Cc1c[nH]c2ccccc12)C(=O)O)[C@@H](C)CC (Suc-EAVYGAHLDIIW-OH) | 260 nM |  | > 10000 nM
CC[C@H](C)[C@H](NC(=O)[C@H](CC(=O)O)NC(=O)[C@H](CC(C)C)NC(=O)[C@H](Cc1cnc[nH]1)NC(=O)[C@@H]1CSSC[C@H](N)C(=O)N[C@@H](CO)C(=O)N[C@H]2CSSC[C@H](NC(=O)[C@H](CCC(=O)O)NC(=O)[C@H](CCCCN)NC(=O)[C@H](CC(=O)O)NC(=O)[C@H](CCSC)NC(=O)[C@H](CC(C)C)NC(=O)[C@H](CO)NC(=O)[C@H](CO)NC2=O)C(=O)N[C@@H](C(C)C)C(=O)N[C@@H](Cc2ccc(O)cc2)C(=O)N[C@@H](Cc2ccccc2)C(=O)N1)C(=O)N[C@H](C(=O)N[C@@H](Cc1c[nH]c2ccccc12)C(=O)O)[C@@H](C)CC [ENDOTHELIN] |  |  | 0.04 nM
